{
  "source": "the NIST ThermoML archive (doi:10.1016/j.jct.2015.07.024)",
  "conditions": "Liquid, Closed cell (Static) method",
  "note": "Numbers after ± are expanded uncertainties.",
  "data": [
    {"smiles": "CCOC(=O)OCC", "note": "[diethyl carbonate]", "values": [
      {"measurement": "vapor or sublimation pressure", "setting": "373 K", "result": "45.1 ± 2.1", "unit": "kPa"},
      {"measurement": "vapor or sublimation pressure", "setting": "412.5 K", "result": "143 ± 5.9", "unit": "kPa"},
      {"measurement": "vapor or sublimation pressure", "setting": "452.2 K", "result": "361 ± 15", "unit": "kPa"}
    ]},
    {"smiles": "CCOC(C)=O", "note": "[ethyl acetate]", "values": [
      {"measurement": "vapor or sublimation pressure", "setting": "373 K", "result": "205.7 ± 9", "unit": "kPa"},
      {"measurement": "vapor or sublimation pressure", "setting": "412.8 K", "result": "557.1 ± 23", "unit": "kPa"},
      {"measurement": "vapor or sublimation pressure", "setting": "452.3 K", "result": "1222.7 ± 49", "unit": "kPa"}
    ]},
    {"smiles": "CC(=O)Oc1ccccc1", "note": "[phenyl ethanoate]", "values": [
      {"measurement": "vapor or sublimation pressure", "setting": "373.2 K", "result": "3.5 ± 0.2", "unit": "kPa"},
      {"measurement": "vapor or sublimation pressure", "setting": "413.2 K", "result": "18.2 ± 0.8", "unit": "kPa"},
      {"measurement": "vapor or sublimation pressure", "setting": "453.2 K", "result": "66.1 ± 2.7", "unit": "kPa"}
    ]}
  ]
}
